Experimental data taken from patent US20220306695A1, “COMPSTATIN ANALOGUES AND THEIR MEDICAL USES” (priority 2019, published 2022).
Like-named read-outs stand apart in the source and are kept apart here. Positions of bridges follow the written chain, without caps; N, C: chain ends. Non-standard residues stand in square brackets, D forms with d. Residues, ends and D or L forms follow the SMILES beside them. Trp(1-Me) = Cn1cc(C[C@H](N)C(=O)O)c2ccccc21; Sar = CNCC(=O)O

Experiments:
[1] = test system: alternative complement pathway; experiment: Ex vivo alternative pathway complement activity (WIESLAB kit) in serum of dosed non-human primates; parameters: species or system Cynomolgus monkeys (Macaca fascicularis); conditions: NHP, subcutaneous 1840 nmol/kg, FIG. 1
Description: FIG. 1(a-g): Normalized “ex vivo” activity of the alternative complement pathway over time after administration of a test compound at time 0 to non-human primates. Compounds were given subcutaneously at a dose of 1840 nmol/kg. Complement activity (alternative pathway) was measured using the Wieslab kit. Activity was normalized using the predose (0) sample (set to 100%) and the negative control included in the kit. Normalized activity or average normalized activity for animals and standard deviation is shown.
Healthy male Cynomolgus monkeys (Macaca fascicularis) received single subcutaneous administrations of each test substance. Compounds were formulated in 20 mM phosphate adjusted with NaOH to pH 7.5 and mannitol for isotonicity and dosed at 1840 nmol/kg. Blood was collected from a femoral vein from each animal at the following times: Pre-dose, 1, 2, 4, 8, 24, 48, 72, 96 and 120 h (10 sampling times). Blood was collected into serum separation tubes and allowed to clot at room temperature. The tubes were centrifuged and resulting serum was aliquoted and snap-frozen over dry-ice and stored at nominally −80° C. until analysis. All NHP studies were performed in accordance with animal welfare laws and regulations, including approval of the study by a local ethical review process.
Serum isolated from non-human primates at specific time points after dosing were analyzed for alternative pathway complement activity using the Complement system Alternative Pathway WIESLAB® kit from Svar Life Science (previously Euro diagnostic AB, Sweden) following the manufacturer's protocol. Briefly, serum samples or controls were diluted in buffer and incubated in microtitre strips coated with specific activators of the alternative pathway. The wells were washed and formed C5b-9 was detected using included colorimetric reagents.
Absorbance at 405 nm was measured. The percent activity of the alternative complement pathway was calculated for each animal and timepoint relative to the pre-dose activity (0 hours) of the individual animal with subtraction of the negative control. […]

[2] = Solubility test at 10 mg/mL (visual inspection and light scattering); assay type: physicochemical; conditions: for Solubility, Condition 1 Acetate pH 4: 10 mg/mL compound in 100 mM acetate pH 4; for Solubility, Condition 2 Acetate pH 5: 10 mg/mL compound in 100 mM acetate pH 5; for Solubility, Condition 3 Phosphate pH 6: 10 mg/mL compound in 100 mM phosphate pH 6; for Solubility, Condition 4 Phosphate pH 7: 10 mg/mL compound in 100 mM phosphate pH 7; for Solubility, Condition 5 Phosphate pH 7.5: 10 mg/mL compound in 100 mM phosphate pH 7.5
in vivo = experiment: in vivo; parameters: species or system Cynomolgus monkeys (Macaca fascicularis); conditions: male, cynomolgus monkey, sc, 1840 nmol/kg, t½
Summary of the method: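 Healthy male cynomolgus monkeys dosed once subcutaneously at 1840 nmol/kg in 20 mM phosphate pH 7.5 with mannitol. Serum sampled pre-dose to 120 h and total drug measured by SPE and LC-MS/MS. Terminal half-life calculated non-compartmentally as ln(2)/λz from the terminal log-linear phase.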

[3] = test system: classical complement pathway; experiment: In vitro haemolysis assay (inhibition of classical complement pathway); assay type: cell-based, human; conditions: Table 3; human serum, sensitized sheep red blood cells; read-out: IC50[nM], in vitro analysis of inhibition of hemolysis
Summary of the method: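 Serially diluted compound (9 points) was preincubated 15 min at room temperature with diluted human serum, titrated per batch to give 70-90% maximal haemolysis, in Tris/casein buffer pH 7.4 with Mg2+/Ca2+. Antibody-sensitized sheep erythrocytes were then added for 30 min at 37° C, and the reaction was stopped with EDTA. Haemolysis was read at A405, with IC50 from 4PL fit.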

Human C3 [4] = molecular target: T1, Human C3 (human, UniProt P01024 23-1663); experiment: cell-based or functional assay
Human C3 [5] = molecular target: T1, Human C3; experiment: cell-based or functional assay; remark: listed apart in the source
Human C3 [6] = molecular target: T1, Human C3; experiment: cell-based or functional assay; remark: listed apart in the source
Human C3 [7] = molecular target: T1, Human C3; experiment: cell-based or functional assay; remark: listed apart in the source
Human C3 [8] = molecular target: T1, Human C3; experiment: SPR, C3 immobilised
Description: Surface plasmon resonance (SPR) was used to characterize peptides with respect to their binding affinity (Kd) for C3. Human C3 (Complement tech cat #A1 13c) was immobilised on individual flow cells of CM5 sensor chips (GE Healthcare) using standard amine coupling to a density of approximately 3000 resonance units (RU) in a buffer consisting of 10 mM phosphate pH 7.4, 150 mM NaCl, 0.05% Tween20.
For interaction experiments a multi-cycle experiment approach was used and performed using either a Biacore™ T200 or Biacore™ X100 instrument (GE Healthcare) at 25° C. Peptides were injected in increasing concentration series (5-8 different concentrations) for 60-120 s at a flow rate of 30 μL/min in a buffer consisting of 10 mM Tris buffer at pH 7.4, with 150 mM NaCl and 0.05% Tween20. This was followed by a dissociation period for up to 10 min. The C3 surface was regenerated between runs by a 45 s injection of 3 M MgCl₂.
Sensorgrams were double-referenced (reference surface, blanks) prior to analysis of the kinetic profiles by globally fitting data to a 1:1 Langmuir binding model to obtain association and dissociation rates for calculation of the equilibrium dissociation constant Kd. Each peptide was tested at in at least 2 independent experiments.

T1 sequence (P01024 23-1663 limits assumed): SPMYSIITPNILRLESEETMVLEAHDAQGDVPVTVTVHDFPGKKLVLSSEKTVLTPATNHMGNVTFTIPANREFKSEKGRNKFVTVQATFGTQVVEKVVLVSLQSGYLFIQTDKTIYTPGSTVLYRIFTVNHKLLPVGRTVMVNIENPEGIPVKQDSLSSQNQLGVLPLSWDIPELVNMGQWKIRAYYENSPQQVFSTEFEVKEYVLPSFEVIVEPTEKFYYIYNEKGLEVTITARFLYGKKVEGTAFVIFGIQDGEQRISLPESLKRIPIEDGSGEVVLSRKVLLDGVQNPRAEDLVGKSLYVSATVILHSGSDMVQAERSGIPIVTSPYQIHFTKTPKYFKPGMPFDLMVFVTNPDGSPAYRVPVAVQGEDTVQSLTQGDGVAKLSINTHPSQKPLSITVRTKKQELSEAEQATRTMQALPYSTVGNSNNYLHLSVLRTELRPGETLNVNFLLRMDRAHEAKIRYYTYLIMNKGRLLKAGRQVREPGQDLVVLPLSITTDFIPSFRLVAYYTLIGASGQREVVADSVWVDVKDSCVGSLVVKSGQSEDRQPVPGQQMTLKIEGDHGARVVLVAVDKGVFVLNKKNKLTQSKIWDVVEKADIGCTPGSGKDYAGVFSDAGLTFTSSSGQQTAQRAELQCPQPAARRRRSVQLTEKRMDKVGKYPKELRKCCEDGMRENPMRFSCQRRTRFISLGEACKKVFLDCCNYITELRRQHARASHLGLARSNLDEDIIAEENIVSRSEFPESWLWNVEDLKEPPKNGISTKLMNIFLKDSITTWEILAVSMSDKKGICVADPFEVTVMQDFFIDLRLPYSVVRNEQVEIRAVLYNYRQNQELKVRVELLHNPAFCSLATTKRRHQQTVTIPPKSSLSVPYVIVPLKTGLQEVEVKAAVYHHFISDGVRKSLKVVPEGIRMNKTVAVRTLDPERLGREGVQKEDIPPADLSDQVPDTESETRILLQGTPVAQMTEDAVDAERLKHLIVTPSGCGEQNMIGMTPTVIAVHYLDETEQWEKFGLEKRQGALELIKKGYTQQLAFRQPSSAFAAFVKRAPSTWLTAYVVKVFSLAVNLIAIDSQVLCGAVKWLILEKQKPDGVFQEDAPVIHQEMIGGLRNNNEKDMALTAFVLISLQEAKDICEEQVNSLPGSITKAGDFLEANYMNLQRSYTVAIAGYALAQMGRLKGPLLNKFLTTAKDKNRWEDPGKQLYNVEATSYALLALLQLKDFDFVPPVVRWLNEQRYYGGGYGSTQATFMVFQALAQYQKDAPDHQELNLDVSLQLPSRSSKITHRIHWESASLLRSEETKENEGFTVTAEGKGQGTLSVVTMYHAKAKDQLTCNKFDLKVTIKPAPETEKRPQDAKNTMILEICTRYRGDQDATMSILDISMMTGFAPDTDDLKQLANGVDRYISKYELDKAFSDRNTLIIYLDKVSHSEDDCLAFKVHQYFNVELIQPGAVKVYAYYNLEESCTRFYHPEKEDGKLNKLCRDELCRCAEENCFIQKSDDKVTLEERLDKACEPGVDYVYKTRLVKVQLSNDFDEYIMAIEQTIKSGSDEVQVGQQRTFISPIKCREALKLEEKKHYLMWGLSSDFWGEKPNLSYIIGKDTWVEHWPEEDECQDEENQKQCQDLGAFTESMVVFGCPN

| Molecule | Duration of pharmacological activity (alternative complement pathway activity) in vivo [1] | Solubility, Condition 1 Acetate pH 4 [2] | Solubility, Condition 2 Acetate pH 5 [2] | Solubility, Condition 3 Phosphate pH 6 [2] | Solubility, Condition 4 Phosphate pH 7 [2] | Solubility, Condition 5 Phosphate pH 7.5 [2] | half-life (in vivo) [h] | IC50 [3] [nM] | IC50[nM], inhibition of hemolysis (Human C3 [4]) [nM] | CP hemolysis IC50 (Human C3 [5]) [nM] | CP hemolysis IC50 (Human C3 [6]) [nM] | IC50, CP hemolysis (Human C3 [7]) [nM] | Kd (Human C3 [8]) [nM] |
| --- | --- | --- | --- | --- | --- | --- | --- | --- | --- | --- | --- | --- | --- |
| CC[C@H](C)[C@@H]1NC(=O)[C@@H](NC(=O)[C@H](Cc2ccccc2)NC(C)=O)CSSC[C@@H](C(=O)N[C@H](C(=O)NCC(=O)N[C@@H](C)C(=O)N[C@@H](CCC(=O)O)C(=O)N[C@@H](CO)C(N)=O)[C@@H](C)O)NC(=O)[C@H](CCCNC(=N)N)NC(=O)[C@H](Cc2c[nH]cn2)NC(=O)[C@H](CCC(=O)O)NC(=O)CNC(=O)[C@H](Cc2c[nH]c3ccccc23)NC(=O)[C@H](CC(=O)O)NC(=O)[C@H](CCC(N)=O)NC(=O)[C@H](Cc2cn(C)c3ccccc23)NC1=O [Compound 61] (Ac-FCI[Trp(1-Me)]QDWGEHRCTGAES-NH2; disulfide 2-12) | relatively short duration of action | − (denotes lack of solubility at the given condition, as UV absorbance at 340 nm exceeds 0.1 AU and/or it is visibly turbid or contains particles.) | − (denotes lack of solubility at the given condition, as UV absorbance at 340 nm exceeds 0.1 AU and/or it is visibly turbid or contains particles.) | + (denotes solubility at the given condition, as determined by UV absorbance being less than 0.1 AU at 340 nm and the sample being clear when manually inspected.) | + (denotes solubility at the given condition, as determined by UV absorbance being less than 0.1 AU at 340 nm and the sample being clear when manually inspected.) | + (denotes solubility at the given condition, as determined by UV absorbance being less than 0.1 AU at 340 nm and the sample being clear when manually inspected.) | 23.3 | < 100 | – | – | – | – | – |
| CC[C@H](C)[C@H](NC(=O)[C@H](N)Cc1ccc(O)cc1)C(=O)N[C@H]1CSSC[C@@H](C(=O)N(C)[C@H](C(N)=O)[C@@H](C)CC)NC(=O)[C@H](CCCNC(=N)N)NC(=O)[C@H](Cc2c[nH]cn2)NC(=O)[C@H](C)NC(=O)CN(C)C(=O)[C@H](Cc2c[nH]c3ccccc23)NC(=O)[C@H](CC(=O)O)NC(=O)[C@H](CCC(N)=O)NC(=O)[C@H](Cc2cn(C)c3ccccc23)NC(=O)[C@H](C(C)C)NC1=O [Cp40, H-{d}YIC(1)V[1-Me-Trp]QDW[Sar]AHRC(1)[N-Me-Ile]-NH2, reference compound] | relatively short duration of action | – | – | – | – | – | 31.8 | < 100 | – | – | – | – | – |
| CC[C@H](C)[C@@H]1NC(=O)[C@@H](NC(=O)[C@H](Cc2ccc(O)cc2)NC(=O)[C@H](C)NC(=O)[C@H](CO)NC(=O)CNC(=O)[C@H](CCC(=O)O)NC(C)=O)CSSC[C@@H](C(=O)N(C)CC(=O)N[C@@H](CCC(=O)O)C(N)=O)NC(=O)[C@H](CCCNC(=N)N)NC(=O)[C@H](Cc2c[nH]cn2)NC(=O)[C@H](CCC(=O)O)NC(=O)CNC(=O)[C@H](Cc2c[nH]c3ccccc23)NC(=O)[C@H](CC(=O)O)NC(=O)[C@H](CCC(N)=O)NC(=O)[C@H](Cc2cn(C)c3ccccc23)NC1=O [Compound 54] (Ac-EGSAYCI[Trp(1-Me)]QDWGEHRC[Sar]E-NH2; disulfide 6-16) | relatively short duration of action | − (denotes lack of solubility at the given condition, as UV absorbance at 340 nm exceeds 0.1 AU and/or it is visibly turbid or contains particles.) | − (denotes lack of solubility at the given condition, as UV absorbance at 340 nm exceeds 0.1 AU and/or it is visibly turbid or contains particles.) | + (denotes solubility at the given condition, as determined by UV absorbance being less than 0.1 AU at 340 nm and the sample being clear when manually inspected.) | + (denotes solubility at the given condition, as determined by UV absorbance being less than 0.1 AU at 340 nm and the sample being clear when manually inspected.) | + (denotes solubility at the given condition, as determined by UV absorbance being less than 0.1 AU at 340 nm and the sample being clear when manually inspected.) | 9.71 | < 100 | – | – | – | – | – |
| Ac-ICIWQDWGAHRCT-NH2 (disulfide 2-12; SMILES CC[C@H](C)[C@H](NC(C)=O)C(=O)N[C@H]1CSSC[C@@H](C(=O)N[C@H](C(N)=O)[C@@H](C)O)NC(=O)[C@H](CCCNC(=N)N)NC(=O)[C@H](Cc2c[nH]cn2)NC(=O)[C@H](C)NC(=O)CNC(=O)[C@H](Cc2c[nH]c3ccccc23)NC(=O)[C@H](CC(=O)O)NC(=O)[C@H](CCC(N)=O)NC(=O)[C@H](Cc2c[nH]c3ccccc23)NC(=O)[C@H]([C@@H](C)CC)NC1=O) [Compound 1] | – | – | – | – | – | – | – | – | < 250 | 150 | – | – | – |
| Ac-ICVWQDWGEHRCT-NH2 (disulfide 2-12; SMILES CC[C@H](C)[C@H](NC(C)=O)C(=O)N[C@H]1CSSC[C@@H](C(=O)N[C@H](C(N)=O)[C@@H](C)O)NC(=O)[C@H](CCCNC(=N)N)NC(=O)[C@H](Cc2c[nH]cn2)NC(=O)[C@H](CCC(=O)O)NC(=O)CNC(=O)[C@H](Cc2c[nH]c3ccccc23)NC(=O)[C@H](CC(=O)O)NC(=O)[C@H](CCC(N)=O)NC(=O)[C@H](Cc2c[nH]c3ccccc23)NC(=O)[C@H](C(C)C)NC1=O) [Compound A] | – | – | – | – | – | – | – | – | – | – | 350 | 350 | 130 |
